From ChEMBL document CHEMBL1141801, “N-(jasmonoyl)tyrosine-derived compounds from flowers of broad beans (Vicia faba)” (J Nat Prod, 2005)
Activity calls are given as the source filed them. No cut-off for these calls is given here.

Tests used:
[1] = molecular target: T1, Tyrosinase (Agaricus bisporus) (UniProt O42713); test: Activity of mushroom tyrosinase assessed as specific activity pkat per mg of protein
T1 sequence (whole entry): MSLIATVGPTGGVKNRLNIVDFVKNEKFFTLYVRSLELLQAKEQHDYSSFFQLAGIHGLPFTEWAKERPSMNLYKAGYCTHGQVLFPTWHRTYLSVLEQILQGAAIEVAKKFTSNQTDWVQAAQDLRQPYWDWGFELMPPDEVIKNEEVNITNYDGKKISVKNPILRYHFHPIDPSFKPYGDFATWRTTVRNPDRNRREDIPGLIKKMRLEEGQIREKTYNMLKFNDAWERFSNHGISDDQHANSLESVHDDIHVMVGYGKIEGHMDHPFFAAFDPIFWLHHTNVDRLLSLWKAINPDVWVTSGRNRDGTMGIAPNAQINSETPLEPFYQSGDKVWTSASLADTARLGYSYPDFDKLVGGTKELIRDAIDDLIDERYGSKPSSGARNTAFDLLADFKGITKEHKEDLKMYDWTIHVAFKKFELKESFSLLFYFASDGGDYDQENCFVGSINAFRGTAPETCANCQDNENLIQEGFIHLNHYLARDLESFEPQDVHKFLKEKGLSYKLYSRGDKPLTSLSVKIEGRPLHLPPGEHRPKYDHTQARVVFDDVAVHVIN

Eschscholzia californica [2] = test: Elicitor activity in Eschscholzia californica Cham. assessed as elicitation of chelirubine formation at 300 uM; format: functional, organism-based
Eschscholzia californica [3] = test: Elicitor activity in Eschscholzia californica Cham. assessed as elicitation of chelirubine formation at 30 uM; format: functional, organism-based
Eschscholzia californica [4] = test: Elicitor activity in Eschscholzia californica Cham. assessed as elicitation of chelirubine formation; format: functional, organism-based

Structure (SMILES)	Activity [1]	Activity (Eschscholzia californica [2])	Activity (Eschscholzia californica [3])	Activity (Eschscholzia californica [4])
N[C@@H](Cc1ccc(O)cc1)C(=O)O	15600	–	–	–
CC/C=C\CC1C(=O)CCC1CC(=O)N[C@@H](Cc1ccc(O)cc1)C(=O)O (mixture of isomers)	2320	–	–	–
CC/C=C\CC1C(=O)CCC1CC(=O)NCCc1ccc(O)c(O)c1 (racemic)	–	Active	Active	–
CC/C=C\CC1C(=O)CCC1CC(=O)NCCc1ccc(O)cc1 (racemic)	5630	Active	Active	–
CC/C=C\CC1C(=O)CCC1CC(=O)O (racemic)	–	–	–	Active
